Measured values reported in patent publication US7214663B2, “Tripeptide prodrug compounds” (Medarex, Inc., priority 2001, dated 2007).
Non-standard residues stand in square brackets, D forms with d. Residues, ends and D or L forms follow the SMILES beside them. *: point of attachment. Daunorubicin = COc1cccc2c1C(=O)c1c(O)c3c(c(O)c1C2=O)C[C@@](O)(C(C)=O)C[C@@H]3O[C@H]1C[C@H](N*)[C@H](O)[C@H](C)O1; Sta = CC(C)C[C@H](N)[C@@H](O)CC(=O)O; pGlu = O=C1CC[C@@H](C(=O)O)N1; Isovaleryl = CC(C)CC(=O)*

How the values were obtained:
[1] = tested on: HeLa cell anion exchange fraction (F1), trouase; experiment: Relative cleavage by HeLa cell anion exchange fraction (F1) versus Suc-βAla-Leu-Ala-Leu standard; type: biochemical, human; details: 2 hr at 37° C., 12.5 μg/mL, HeLa F1; relative to Suc-βAla-Leu-Ala-Leu-(Dox or Dnr) standard
Method: Thirty billion commercially produced HeLa Cells (human cervical carcinoma, Computer Cell Culture Ceizter, Seneffe, Belgium) were homogenized with a sonicator and with a Dounce homogenizer in 108 mL of aqueous lysis solution. The lysis solution contained 0.02% w/v Triton X-100, 0.04% w/v sodium azide, and a cocktail of protease inhibitors (2 tablets/50 mL Complete™, EDTA-free tablets, Roche Molecular Biochemicals). The cell homogenate was centrifuged 30 minutes at 4° C. at 5000×g and the pellet was homogenized in a second 108 mL of lysis solution using a Dounce homogenizer and centrifuged as before. The supernatants were combined and centrifuged for 90 min at 145,000×g at 4° C.
A portion of the ultracentrifugation supernatant was diluted 2-fold with a 20 mM triethanolamine-HCl pH 7.2 buffer containing 0.01% (w/v) Triton X-100 and 0.02% (w/v) sodium azide (equilibration buffer). Thirty mL of the resulting solution, corresponding to approximately 180 mg of protein, was loaded at 4° C. on a 2.6×9.4 cm Source™ 15Q (Amersham Pharmacia Biotech) low pressure anion exchange chromatography column (1 ml/minute). The column was then washed with 250 ml of the equilibration buffer at a flow rate of 1 mL/minute. Proteins were eluted in a NaCl linear concentration gradient (0–0.5 M in the equilibration buffer, total volume of the gradient was 1000 ml) at a flow rate of 3 ml/minute. Two-minute fractions were collected and used for enzyme activity determination using βAla-Leu-Ala-Leu-Dox as the substrate. Its transformation into Ala-Leu-Dox was quantified by reverse phase high performance liquid chromatography utilizing fluorescence detection of the anthracycline moiety. The fractions containing the highest activity levels were pooled (fractions #43–46; ˜0.13 M NaCl), supplemented with protease inhibitors (Complete™, EDTA-free tablets, Roche Molecular Biochemicals), and stored as aliquots at −80° C.
Test compounds were incubated for 2 hr at 37° C. at a concentration of 12.5 μg/mL with HeLa cell anion exchange fraction (F1), as prepared in Example 1(c). Following incubation, three volumes of acetonitrile were added to stop the reaction and remove protein from the mixture. The sample was centrifuged at 18,000 g for 5 minutes and 100 μL of supernatant was mixed with 300 μL of water prior to analysis by HPLC. For HPLC analysis 50 μL of sample was injected on a 4.6×50 mm 2μ TSK Super-ODS chromatography column at 40° C. and eluted with a 3 minute linear gradient from 26% to 68% acetonitrile in aqueous 20 mM ammonium acetate pH 4.5 buffer at 2 mL/min. Detection was by fluorescence using an excitation wavelength of 235 nm and an emission wavelength of 560 nm.
the amount of cleavage of each test compound was compared to the amount of a standard Suc-βAla-Leu-Ala-Leu-therapeutic agent conjugate cleaved by F1 under the same conditions. The therapeutic agent in the standard (Dox or Dnr) was the same as in the test compound. Table 3 provides the relative cleavage rates of several tripeptide prodrugs.

[2] = tested on: carcinoma cell trouase; experiment: Inhibitor profile of carcinoma cell trouase; type: biochemical, human
[3] = Metabolism and clearance of Suc-Met-Ala-Leu-Dox in mice (plasma, urine); type: in vivo, mouse
Method: Plasma samples were obtained at 1 or 4 hours, and urine was collected at 2 and 24 hours post administration. Levels of the prodrug and metabolites were measured by LC-MS with UV detection of doxorubicin.

[4] = Metabolism and clearance of Suc-Leu-Ala-Leu-Dox in mice (plasma, urine); type: in vivo, mouse
Method: Plasma samples of 100 μl were transferred to microcentrifuge tubes (1.5 mL) and an internal standard of daunorubicin (20 μL at 0.5 mg/ml) was added together with acetonitrile (400 μl). The tubes were capped and briefly vortexed followed by centrifugation at 14,000 rpm. 420 μl from each tube was removed and dried in vacuo. Each sample was reconstituted in 65 μl 20 mM aqueous ammonium formate (AF) pH 4.5 buffer containing acetonitrile (20%) prior to analysis by reverse phase liquid chromatography in combination with tandem mass spectrometry (LC MS/MS).
Urine was collected at 2 and 24 hours post administration from pairs of mice in metabolic cages. Urine samples were diluted with AF buffer containing acetonitrile (20%) to give a target analyte concentration within the practical range of the LC MS/MS assay. 30 μl of each diluted sample was placed in a micro centrifuge tube (1.5 ml) and an internal standard of daunorubicin (20 μL at 0.5 mg/ml) was added together with 50 μl of AF buffer containing acetonitrile (20%). Each sample was then analyzed by LC MS/MS.
An Agilent HP1100 HPLC with DAD detector and Chemstation software was coupled to a PE Sciex API 365 mass spectrometer with an electrospray ion source. HPLC was performed on a TSK-Gel Super ODS, […], 4.6×50 mm (TosoHaas) reversed phase column equipped with a […] C18 guard disc (Higgins Analytical) and stainless steel frit (Upchurch Scientific). Chromatography was performed at room temperature. The flow rate was 0.5 ml/min. Injection volume was 50 μl. Gradient elution was performed using a mobile phase of AF buffer with increasing amounts of acetonitrile. The API 365 was operated at 365° C. in a multiple reaction monitoring mode, set to monitor specific analyte parent-daughter ion pairs. Integration of chromatograms was performed by MacQuan software (PE Sciex) and quantitation of each analyte obtained by comparison to previously obtained calibration curves. Daunorubicin was used as an internal standard in all cases.

[5] = after single intravenous 120 mg/kg Suc-Met-Ala-Leu-Dox
[6] = after single intravenous 117 mg/kg Suc-Leu-Ala-Leu-Dox

Row | Molecule | Relative Cleavage % [1] [%] | inhibition of carcinoma cell trouase [2] | further results
1 | COc1cccc2c1C(=O)c1c(O)c3c(c(O)c1C2=O)CC(O)(C(C)=O)CC3OC1CC(NC(=O)C(CC(C)C)NC(=O)CNC(=O)C(CCSC)NC(=O)CCC(=O)O)C(O)C(C)O1 (stereo not drawn) [Suc-Met-Gly-Leu-Dnr] | 55 | – | –
2 | CO[C@@H]1[C@H](OC(=O)/C=C/C=C/C=C/C=C/C(=O)O)CC[C@]2(CO2)[C@H]1[C@@]1(C)O[C@@H]1CC=C(C)C [fumagillin] | – | not | –
3 | [Zn+2] [Zn^2+] | – | – | inhibition of hydrolysis of Suc-βAla-Leu-Ala-Leu-Dox by HeLa cell Fraction 1 ([2]; 100 μM): completely inhibits
4 | COc1cccc2c1C(=O)c1c(O)c3c(c(O)c1C2=O)C[C@@](O)(C(C)=O)C[C@@H]3O[C@H]1C[C@H](NC(=O)[C@H](CC(C)C)NC(=O)[C@H](C)NC(=O)[C@H](CC(C)C)NC(=O)CCC(=O)O)[C@H](O)[C@H](C)O1 [Suc-Leu-Ala-Leu-Dnr] | 76 | – | –
5 | COc1cccc2c1C(=O)c1c(O)c3c(c(O)c1C2=O)C[C@@](O)(C(=O)CO)C[C@@H]3O[C@H]1C[C@H](NC(=O)[C@H](CC(C)C)NC(=O)[C@H](C)N)[C@H](O)[C@H](C)O1 [Ala-Leu-Dox] | – | – | Plasma 1 hr, percent of administered dose ([3]; mouse, in vivo, iv, 120 mg/kg): 0.002%; Plasma 4 hr, percent of administered dose ([3]; mouse, in vivo, iv, 120 mg/kg): 0.000%; Urine 2 hr, percent of administered dose ([3]; mouse, in vivo, iv, 120 mg/kg): 0.16%; Urine 24 hr, percent of administered dose ([3]; mouse, in vivo, iv, 120 mg/kg): 0.02%; Plasma 1 hr, percent of administered dose ([4]; mouse, in vivo, iv, 117 mg/kg): 0.006%; Plasma 4 hr, percent of administered dose ([4]; mouse, in vivo, iv, 117 mg/kg): 0.000%; Urine 2 hr, percent of administered dose ([4]; mouse, in vivo, iv, 117 mg/kg): 0.02%; Urine 24 hr, percent of administered dose ([4]; mouse, in vivo, iv, 117 mg/kg): 0.01%
6 | COc1cccc2c1C(=O)c1c(O)c3c(c(O)c1C2=O)CC(O)(C(C)=O)CC3OC1CC(NC(=O)C(CC(C)C)NC(=O)C(C)NC(=O)C(Cc2ccc(O)cc2)NC(=O)CCC(=O)O)C(O)C(C)O1 (stereo not drawn) [Suc-Tyr-Ala-Len-Dnr] | 77 | – | –
7 | COc1cccc2c1C(=O)c1c(O)c3c(c(O)c1C2=O)CC(O)(C(C)=O)CC3OC1CC(NC(=O)C(Cc2ccccc2)NC(=O)CNC(=O)C(Cc2ccccc2)NC(=O)CCC(=O)O)C(O)C(C)O1 (stereo not drawn) [Suc-Phe-Gly-Phe-Dnr] | 12 | – | –
8 | COc1cccc2c1C(=O)c1c(O)c3c(c(O)c1C2=O)C[C@@](O)(C(=O)CO)C[C@@H]3O[C@H]1C[C@H](NC(=O)[C@@H](N)CC(C)C)[C@H](O)[C@H](C)O1 [Leu-Dox] | – | – | Plasma 1 hr, percent of administered dose [3, 5]: 0.022%; Plasma 4 hr, percent of administered dose [3, 5]: 0.001%; Urine 2 hr, percent of administered dose [3, 5]: 7.28%; Urine 24 hr, percent of administered dose [3, 5]: 1.25%; plasma level, times higher than Ala-Leu-Dox ([3]; at both 1 and 4 hours after 120 mg/kg Suc-Met-Ala-Leu-Dox): about 10 times; Plasma 1 hr, percent of administered dose [4, 6]: 0.019%; Plasma 4 hr, percent of administered dose [4, 6]: 0.001%; Urine 2 hr, percent of administered dose [4, 6]: 1.53%; Urine 24 hr, percent of administered dose [4, 6]: 0.45%
9 | c1cnc2c(c1)ccc1cccnc12 [1,10-phenanthroline] | – | inhibited | –
10 | CCC(C)C(NC(=O)C(C)NC(=O)C(Cc1ccc(O)cc1)NC(=O)CCC(=O)O)C(=O)NC1CC(OC2CC(O)(C(C)=O)Cc3c(O)c4c(c(O)c32)C(=O)c2c(OC)cccc2C4=O)OC(C)C1O (stereo not drawn) [Suc-Tyr-Ala-Ile-Dnr] | 25 | – | –
11 | CCC(C)C(NC(=O)CNC(=O)C(Cc1ccccc1)NC(=O)CCC(=O)O)C(=O)NC1CC(OC2CC(O)(C(C)=O)Cc3c(O)c4c(c(O)c32)C(=O)c2c(OC)cccc2C4=O)OC(C)C1O (stereo not drawn) [Suc-Phe-Gly-Ile-Dnr] | 54 | – | –
12 | CC(C)CC(=O)N[C@H](C(=O)N[C@H](C(=O)N[C@@H](CC(C)C)[C@@H](O)CC(=O)N[C@@H](C)C(=O)N[C@@H](CC(C)C)[C@@H](O)CC(=O)O)C(C)C)C(C)C [pepstatin] (Isovaleryl-VV[Sta]A[Sta]-OH) | – | not | –
13 | aprotinin | – | not | –
14 | COc1cccc2c1C(=O)c1c(O)c3c(c(O)c1C2=O)CC(O)(C(C)=O)CC3OC1CC(NC(=O)C(CC(C)C)NC(=O)CNC(=O)C(Cc2ccccc2)NC(=O)CCC(=O)O)C(O)C(C)O1 (stereo not drawn) [Suc-Phe-Gly-Leu-Dnr] | 24 | – | –
15 | CC(C)C[C@H](NC(=O)[C@H]1O[C@@H]1C(=O)O)C(=O)NCCCCN=C(N)N [Compound E64, E64] | – | not | –
16 | CCCNC(=O)[C@H]1O[C@@H]1C(=O)N[C@H](C(=O)N1CCC[C@H]1C(=O)O)[C@@H](C)CC [CA074] | – | not | –
17 | CCC(C)C(NC(=O)CNC(=O)C(CCSC)NC(=O)CCC(=O)O)C(=O)NC1CC(OC2CC(O)(C(C)=O)Cc3c(O)c4c(c(O)c32)C(=O)c2c(OC)cccc2C4=O)OC(C)C1O (stereo not drawn) [Suc-Met-Gly-Ile-Dnr] | 46 | – | –
18 | COc1cccc2c1C(=O)c1c(O)c3c(c(O)c1C2=O)CC(O)(C(C)=O)CC3OC1CC(NC(=O)C(CC(C)C)NC(=O)C(C)NC(=O)C(CCSC)NC(=O)CCC(=O)O)C(O)C(C)O1 (stereo not drawn) [Suc-Met-Ala-Leu-Dnr] | 69 | – | –
19 | aminoethylbenzene-sufonate | – | not | –
20 | COc1cccc2c1C(=O)c1c(O)c3c(c(O)c1C2=O)C[C@@](O)(C(C)=O)C[C@@H]3O[C@H]1C[C@H](NC(=O)[C@H](CC(C)C)NC(=O)[C@H](C)NC(=O)[C@H](CC(C)C)NC(=O)[C@@H]2CCC(=O)N2)[C@H](O)[C@H](C)O1 [Pyg-Leu-Ala-Leu-Dnr] ([pGlu]LAL-Daunorubicin) | 76 | – | –
21 | CCCCC(NC(=O)CCC(=O)O)C(=O)NCC(=O)NC(Cc1ccccc1)C(=O)NC1CC(OC2CC(O)(C(C)=O)Cc3c(O)c4c(c(O)c32)C(=O)c2c(OC)cccc2C4=O)OC(C)C1O (stereo not drawn) [Suc-Nle-Gly-Phe-Dnr] | 17 | – | –
22 | COc1cccc2c1C(=O)c1c(O)c3c(c(O)c1C2=O)C[C@@](O)(C(C)=O)C[C@@H]3O[C@H]1C[C@H](NC(=O)[C@H](Cc2ccccc2)NC(=O)CNC(=O)[C@H](CCSC)NC(=O)CCC(=O)O)[C@H](O)[C@H](C)O1 [Suc-Met-Gly-Phe-Dnr] | 29 | – | –
23 | CC(=O)N[C@@H](CC(C)C)C(=O)N[C@@H](CC(C)C)C(=O)N[C@H](C=O)CCCNC(=N)N [leupeptin] | – | not | –
